# From PubChem BioAssay (NCI)
#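 Cultured in 96-well plates, cells were exposed to test compound for 48 hours across five concentrations. TGI: total growth inhibition.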
# Tests used:
# Test in all cases: inhibition of tumour cell growth, NCI panel, 48 h
# [1] = test system: UACC-62 melanoma
# [2] = test system: COLO 205 colon
# [3] = test system: EKVX NSCLC
# [4] = test system: SR leukemia
# [5] = test system: HCC-2998 colon
# [6] = test system: 786-0 renal
# [7] = test system: MDA-MB-435
# [8] = test system: SK-MEL-28 melanoma
# [9] = test system: NCI-H460 lung
# [10] = test system: SF-268 CNS
# [11] = test system: A498 renal
# [12] = test system: CCRF-CEM leukemia
# [13] = test system: HCT-116 colon
# [14] = test system: HL-60(TB) leukemia
# [15] = test system: IGROV1 ovarian
# [16] = test system: SF-539 CNS
# [17] = test system: NCI/ADR-RES ovarian
# [18] = test system: KM12 colon
# [19] = test system: MOLT-4 leukemia
# [20] = test system: ACHN renal
# [21] = test system: M14 melanoma
# [22] = test system: LOX IMVI melanoma
# [23] = test system: HS 578T breast
# [24] = test system: HCT-15 colon
# [25] = test system: MDA-N
# [26] = test system: U251 CNS
# [27] = test system: MALME-3M melanoma
# [28] = test system: T-47D breast
# [29] = test system: RPMI-8226 leukemia
# [30] = test system: HT29 colon
# [31] = test system: BT-549 breast
# [32] = test system: MCF7 breast
# [33] = test system: TK-10 renal
# [34] = test system: K-562 leukemia
# [35] = test system: NCI-H23 lung
# [36] = test system: OVCAR-8 ovarian
# [37] = test system: RXF 393 renal
# [38] = test system: OVCAR-3 ovarian
# [39] = test system: SK-MEL-2 melanoma
# [40] = test system: DU-145 prostate
# [41] = test system: PC-3 prostate
# [42] = test system: HOP-92 NSCLC
# [43] = test system: SN12C renal
# [44] = test system: SK-MEL-5 melanoma
# [45] = test system: SK-OV-3 ovarian
# [46] = test system: UACC-257 melanoma
# [47] = test system: CAKI-1 renal
# [48] = test system: SF-295 CNS
# [49] = test system: HOP-62 NSCLC
# [50] = test system: A549 NSCLC
# [51] = test system: UO-31 renal
# [52] = test system: SNB-19 CNS
# [53] = test system: NCI-H522 lung
# [54] = test system: MDA-MB-231 breast
# [55] = test system: OVCAR-5 ovarian
# [56] = test system: SW-620 colon
# [57] = test system: SNB-75 CNS
# [58] = test system: NCI-H226 lung
# [59] = test system: OVCAR-4 ovarian
compound,measurement,setting,value
O=C(/C=C/c1ccc2c(c1)OCO2)Cc1nc2ncccc2[nH]c1=O,TGI,[1],> 100 µM
same,TGI,[2],> 100 µM
same,TGI,[3],> 100 µM
same,TGI,[4],> 100 µM
same,TGI,[5],> 100 µM
same,TGI,[6],> 100 µM
same,TGI,[7],> 100 µM
same,TGI,[8],> 100 µM
same,TGI,[9],> 100 µM
same,TGI,[10],> 100 µM
same,TGI,[11],> 100 µM
same,TGI,[12],> 100 µM
same,TGI,[13],> 100 µM
same,TGI,[14],> 100 µM
same,TGI,[15],> 100 µM
same,TGI,[16],> 100 µM
same,TGI,[17],> 100 µM
same,TGI,[18],> 100 µM
same,TGI,[19],> 100 µM
same,TGI,[20],> 100 µM
same,TGI,[21],> 100 µM
same,TGI,[22],> 100 µM
same,TGI,[23],> 100 µM
same,TGI,[24],> 100 µM
same,TGI,[25],> 100 µM
same,TGI,[26],> 100 µM
same,TGI,[27],> 100 µM
same,TGI,[28],> 100 µM
same,TGI,[29],> 100 µM
same,TGI,[30],> 100 µM
same,TGI,[31],> 100 µM
same,TGI,[32],> 100 µM
same,TGI,[33],> 100 µM
same,TGI,[34],> 100 µM
same,TGI,[35],> 100 µM
same,TGI,[36],> 100 µM
same,TGI,[37],> 100 µM
same,TGI,[38],> 100 µM
same,TGI,[39],> 100 µM
same,TGI,[40],> 100 µM
same,TGI,[41],> 100 µM
same,TGI,[42],> 100 µM
same,TGI,[43],> 100 µM
same,TGI,[44],> 100 µM
same,TGI,[45],> 100 µM
same,TGI,[46],> 100 µM
same,TGI,[47],> 100 µM
same,TGI,[48],> 100 µM
same,TGI,[49],> 100 µM
same,TGI,[50],> 100 µM
same,TGI,[51],> 100 µM
same,TGI,[52],> 100 µM
same,TGI,[53],> 100 µM
same,TGI,[54],> 100 µM
same,TGI,[55],> 100 µM
same,TGI,[56],> 100 µM
Cc1cccc(Cn2c3c(c4cc(O)ccc42)C(=O)c2ccccc2C3=O)c1,TGI,[1],> 100 µM
same,TGI,[2],> 100 µM
same,TGI,[3],49 µM
same,TGI,[4],> 100 µM
same,TGI,[6],26.6 µM
same,TGI,[7],> 100 µM
same,TGI,[8],> 100 µM
same,TGI,[9],> 100 µM
same,TGI,[10],> 100 µM
same,TGI,[11],> 100 µM
same,TGI,[12],> 100 µM
same,TGI,[13],> 100 µM
same,TGI,[14],> 89 µM
same,TGI,[15],> 71 µM
same,TGI,[16],26.9 µM
same,TGI,[17],> 67.8 µM
same,TGI,[18],> 100 µM
same,TGI,[19],> 100 µM
same,TGI,[20],> 100 µM
same,TGI,[21],> 100 µM
same,TGI,[22],> 100 µM
same,TGI,[23],> 100 µM
same,TGI,[24],> 100 µM
same,TGI,[25],> 100 µM
same,TGI,[26],88.3 µM
same,TGI,[27],> 100 µM
same,TGI,[28],> 100 µM
same,TGI,[29],> 30.6 µM
same,TGI,[30],> 100 µM
same,TGI,[31],> 86.7 µM
same,TGI,[32],98.1 µM
same,TGI,[33],> 100 µM
same,TGI,[34],> 100 µM
same,TGI,[35],> 100 µM
same,TGI,[36],> 93.2 µM
same,TGI,[37],21.2 µM
same,TGI,[38],> 31.6 µM
same,TGI,[39],> 100 µM
same,TGI,[40],> 100 µM
same,TGI,[41],38.4 µM
same,TGI,[43],> 100 µM
same,TGI,[44],> 100 µM
same,TGI,[45],> 29.9 µM
same,TGI,[46],> 100 µM
same,TGI,[47],> 100 µM
same,TGI,[48],21.9 µM
same,TGI,[49],40.9 µM
same,TGI,[57],8.63 µM
same,TGI,[50],> 100 µM
same,TGI,[58],> 100 µM
same,TGI,[51],> 100 µM
same,TGI,[52],> 100 µM
same,TGI,[54],> 70.8 µM
same,TGI,[59],4.57 µM
same,TGI,[56],> 100 µM
